Among the data in paper PMC11995724, “Antibiotic target discovery by integrated phenotypic and activity-based profiling of electrophilic fragments” (Cell chemical biology, 2025) are viability values, retold here.

Where a name gives a salt, the structure may show the parent alone.

The series in a line: in vitro. The following applies: human, hek293t cells.
Procedure: Mammalian cytotoxicity measurement was performed using Cell Titer-Glo 2.0 Cell Viability Assay (Promega, G9243) according to the manufacturer protocol. In brief, mammalian cells were seeded into 384-well white plates (Greiner, 781080) and incubated at 37°C for one day. Compounds from the Cys-Library were dispensed into the assay plate using epMotion 96. The plates were then incubated at 37°C for two days. An equal volume of Cell Titer-Glo 2.0 reagent was added into each well of the assay plate using epMotion 96 and incubated at 22°C for 10 min, followed by luminescence measurement using a Cytation 5 plate reader (BioTek).
Regarding `Cc1c(NC(=O)CCl)cccc1[N+](=O)[O-]` [4-E07, 2-chloro-N-(2-methyl-3-nitrophenyl)acetamide], the viability at 48 h, 25 µM is 1.23%.
Regarding `CC(Cl)C(=O)Nc1nc(-c2cccc([N+](=O)[O-])c2)cs1` (stereo not shown) [4-E08, 2-chloro-N-[4-(3-nitrophenyl)-1,3-thiazol-2-yl]propanamide], the viability at 48 h, 25 µM came to 59.7%.
`CCN(CC)S(=O)(=O)c1cc(NC(=O)CCl)ccc1C` [4-E09, 2-chloro-N-[3-(diethylsulfamoyl)-4-methylphenyl]acetamide]: the viability at 48 h, 25 µM was found to be 0.544%.
`CSC1=C(C#N)C2(CCCCC2)C(C#N)=C(NC(=O)CCl)N1` [4-E10, 2-chloro-N-[1,5-dicyano-4-(methylsulfanyl)-3-azaspiro[5.5]undeca-1,4-dien-2-yl]acetamide]: the viability at 48 h, 25 µM was 0.534%.
As for `CSc1ccccc1NC(=O)CCl` [4-E11, 2-chloro-N-[2-(methylsulfanyl)phenyl]acetamide], the viability at 48 h, 25 µM was 0.595%.
Regarding `CCn1c2ccccc2c2cc(NC(=O)C(C)Cl)ccc21` (stereo not shown) [4-E12, 2-chloro-N-(9-ethyl-9H-carbazol-3-yl)propanamide], the viability at 48 h, 25 µM came to 55.6%.
To `CC(C)C(NC(=O)CCl)c1ccc(F)cc1` (stereo not shown) [4-E13, 2-chloro-N-[1-(4-fluorophenyl)-2-methylpropyl]acetamide] belongs 1.68%; to `CC(Cl)C(=O)N1CCN(c2ccccc2)CC1` (stereo not shown) [4-E14, 2-chloro-1-(4-phenylpiperazin-1-yl)propan-1-one hydrochloride], 66.3%; to `COc1ccc(NC(=O)CCl)cc1S(=O)(=O)N(C)C` [4-E15, 2-chloro-N-[3-(dimethylsulfamoyl)-4-methoxyphenyl]acetamide], 0.774%.
To `O=C(CCl)N1CCCSc2ccccc21` [4-E16, 2-chloro-1-(2,3,4,5-tetrahydro-1,5-benzothiazepin-5-yl)ethan-1-one] belongs 0.703%.
On to `CCOC(=O)c1ccc(NC(=O)CCl)cc1` [4-E17, ethyl 4-(2-chloroacetamido)benzoate], for which the viability at 48 h, 25 µM came to 0.753%.
For `O=C(CCl)NS(=O)(=O)c1ccc(Cl)cc1` [4-E18, 2-chloro-N-(4-chlorobenzenesulfonyl)acetamide], the viability at 48 h, 25 µM amounted to 79.9%.
To `CN(CC(=O)Nc1ccc(Cl)c(C(F)(F)F)c1)C(=O)CCl` [4-E19, 2-chloro-N-({[4-chloro-3-(trifluoromethyl)phenyl]carbamoyl}methyl)-N-methylacetamide] belongs 0.379%.
With `COC(=O)c1c(NC(=O)CCl)sc(Cl)c1-c1ccccc1` [4-E20, methyl 5-chloro-2-(2-chloroacetamido)-4-phenylthiophene-3-carboxylate], the viability at 48 h, 25 µM was 0.576%.
To `CC(C)OC(=O)c1c(NC(=O)CCl)sc2c1CCCC2` [4-E21, propan-2-yl 2-(2-chloroacetamido)-4,5,6,7-tetrahydro-1-benzothiophene-3-carboxylate] belongs 112%; to `O=C(CCl)N1N=C(c2cccc(F)c2)CC1c1cccs1` (stereo not shown) [4-E22, 2-chloro-1-[3-(3-fluorophenyl)-5-(thiophen-2-yl)-4,5-dihydro-1H-pyrazol-1-yl]ethan-1-one], 0.0972%; to `COc1ccc(CN(C)C(=O)CCl)cc1F` [4-F03, 2-chloro-N-[(3-fluoro-4-methoxyphenyl)methyl]-N-methylacetamide], 0.725%.
The same measure for `CCc1cccc(NC(=O)CCl)c1` [4-F04, 2-chloro-N-(3-ethylphenyl)acetamide]: 0.569%.
Regarding `CC(=O)c1cccc(S(=O)(=O)N2CCN(C(=O)CCl)CC2)c1` [4-F05, 1-[4-(3-acetylbenzenesulfonyl)piperazin-1-yl]-2-chloroethan-1-one], the viability at 48 h, 25 µM amounted to 0.228%.
The same measure for `CC(C)c1ccccc1NC(=O)CCl` [4-F06, 2-chloro-N-[2-(propan-2-yl)phenyl]acetamide]: 1.92%; for `COC(=O)c1c(-c2ccccc2Cl)csc1NC(=O)CCl` [4-F07, methyl 2-(2-chloroacetamido)-4-(2-chlorophenyl)thiophene-3-carboxylate]: 5.7%; for `O=C(CCl)Nc1ccc(S(=O)(=O)N2CCCC2)cc1` [4-F08, 2-chloro-N-[4-(pyrrolidine-1-sulfonyl)phenyl]acetamide]: 1.07%.
To `O=C(CCl)Nc1cc(S(=O)(=O)N2CCCCC2)ccc1Cl` [4-F09, 2-chloro-N-[2-chloro-5-(piperidine-1-sulfonyl)phenyl]acetamide] belongs 0.505%; to `CCc1cccc(CC)c1NC(=O)CCl` [4-F10, 2-chloro-N-(2,6-diethylphenyl)acetamide], 99.1%; to `O=C(CCl)N(CC1=CCSC1)c1ccccc1` [4-F11, 2-chloro-N-[(2,5-dihydrothiophen-3-yl)methyl]-N-phenylacetamide], 0.548%.
Regarding `COc1ccc(-c2csc(NC(=O)CCl)n2)c(OC)c1` [4-F12, 2-chloro-N-[4-(2,4-dimethoxyphenyl)-1,3-thiazol-2-yl]acetamide], the viability at 48 h, 25 µM is 0.886%.
To `CC(Cl)C(=O)NCC1COc2ccccc2O1` (stereo not shown) [4-F13, 2-chloro-N-[(2,3-dihydro-1,4-benzodioxin-2-yl)methyl]propanamide] belongs 91.4%; to `O=C(CCl)Nc1ccc(OC(F)F)c(Cl)c1` [4-F14, 2-chloro-N-[3-chloro-4-(difluoromethoxy)phenyl]acetamide], 0.982%; to `O=C(CCl)Nc1nnc(SCc2ccccc2)s1` [4-F15, N-[5-(benzylsulfanyl)-1,3,4-thiadiazol-2-yl]-2-chloroacetamide], 0.76%.
With `O=C(CCl)N1CCN(CC=Cc2ccccc2)CC1` [4-F16, 2-chloro-1-[4-(3-phenylprop-2-en-1-yl)piperazin-1-yl]ethan-1-one hydrochloride], the viability at 48 h, 25 µM is 0.223%.
As for `COc1ccc(Cc2cnc(NC(=O)CCl)s2)cc1` [4-F17, 2-chloro-N-{5-[(4-methoxyphenyl)methyl]-1,3-thiazol-2-yl}acetamide], the viability at 48 h, 25 µM was -0.0636%.
To `CC(Cl)C(=O)Nc1ccc(OC(F)F)c(Cl)c1` (stereo not shown) [4-F18, 2-chloro-N-[3-chloro-4-(difluoromethoxy)phenyl]propanamide] belongs 91.5%.
To `CCc1ccc(Cc2cnc(NC(=O)CCl)s2)cc1` [4-F19, 2-chloro-N-{5-[(4-ethylphenyl)methyl]-1,3-thiazol-2-yl}acetamide] belongs 0.0785%; to `COc1ccc(-n2c(C)c(C)c(C#N)c2NC(=O)CCl)cc1` [4-F20, 2-chloro-N-[3-cyano-1-(4-methoxyphenyl)-4,5-dimethyl-1H-pyrrol-2-yl]acetamide], 0.583%.
On to `Cc1cc(NC(=O)CCl)c([N+](=O)[O-])cc1C` [4-F21, 2-chloro-N-(4,5-dimethyl-2-nitrophenyl)acetamide], for which the viability at 48 h, 25 µM was found to be 112%.
As to `O=C(CCl)NCc1ccccc1S(=O)(=O)N1CCOCC1` [4-F22, 2-chloro-N-{[2-(morpholine-4-sulfonyl)phenyl]methyl}acetamide], the viability at 48 h, 25 µM stood at 2.15%.
As for `Cc1ccc(Sc2ccc(NC(=O)CCl)cc2)cc1C` [4-G03, 2-chloro-N-{4-[(3,4-dimethylphenyl)sulfanyl]phenyl}acetamide], the viability at 48 h, 25 µM was -0.101%.
The same measure for `O=C(CCl)NC(c1ccccc1)c1ccc(Cl)cc1` (stereo not shown) [4-G04, 2-chloro-N-[(4-chlorophenyl)(phenyl)methyl]acetamide]: -0.0119%; for `Cc1cc(NC(=O)CCl)n(-c2ccccc2)n1` [4-G05, 2-chloro-N-(3-methyl-1-phenyl-1H-pyrazol-5-yl)acetamide]: 0.983%.
Regarding `CC(Cl)C(=O)Nc1ccc2c(c1)C(=O)c1ccccc1C2=O` (stereo not shown) [4-G06, 2-chloro-N-(9,10-dioxo-9,10-dihydroanthracen-2-yl)propanamide], the viability at 48 h, 25 µM is 58.6%.
To `CC(=O)c1ccc(NC(=O)CCl)cc1` [4-G07, N-(4-acetylphenyl)-2-chloroacetamide] belongs 0.0514%; to `O=C(CCl)NCc1ccccc1CS(=O)(=O)N1CCOCC1` [4-G08, 2-chloro-N-({2-[(morpholine-4-sulfonyl)methyl]phenyl}methyl)acetamide], 0.79%.
`COc1cc(NC(=O)CCl)cc(OC)c1` [4-G09, 2-chloro-N-(3,5-dimethoxyphenyl)acetamide]: the viability at 48 h, 25 µM stood at 8.6%.
The same measure for `O=C(CCl)Nc1ccccc1C(=O)Nc1ccc(Cl)cc1` [4-G10, 2-(2-chloroacetamido)-N-(4-chlorophenyl)benzamide]: 0.0501%; for `COc1cc(OC)c(NC(=O)CCl)cc1Cl` [4-G11, 2-chloro-N-(5-chloro-2,4-dimethoxyphenyl)acetamide]: 0.402%; for `CC(Cl)C(=O)Nc1ccc(C(C)(C)C)cc1` (stereo not shown) [4-G12, N-(4-tert-butylphenyl)-2-chloropropanamide]: 66.1%.
With `O=C(CCl)N(Cc1ccccc1)c1ccccc1` [4-G13, N-benzyl-2-chloro-N-phenylacetamide], the viability at 48 h, 25 µM worked out at 1.23%.
The same measure for `CC(Cl)C(=O)Nc1ccccc1-c1ccccc1` (stereo not shown) [4-G14, N-{[1,1'-biphenyl]-2-yl}-2-chloropropanamide]: 69.4%.
The same measure for `CCCSc1nsc(NC(=O)CCl)n1` [4-G15, 2-chloro-N-[3-(propylsulfanyl)-1,2,4-thiadiazol-5-yl]acetamide]: 17.4%; for `CC1CCN(C(=O)CCl)c2cc(Cl)ccc2S1` (stereo not shown) [4-G16, 2-chloro-1-(7-chloro-2-methyl-2,3,4,5-tetrahydro-1,5-benzothiazepin-5-yl)ethan-1-one]: 0.484%.
The same measure for `Cc1cc(C)c(-c2csc(NC(=O)CCl)n2)cc1C` [4-G17, 2-chloro-N-[4-(2,4,5-trimethylphenyl)-1,3-thiazol-2-yl]acetamide]: 0.339%; for `CC(Cl)C(=O)Nc1ccccc1[N+](=O)[O-]` (stereo not shown) [4-G18, 2-chloro-N-(2-nitrophenyl)propanamide]: 103%.

By viability is commonly meant a read-out of living cells in per cent, often relative to untreated cells.
